Consider 31 molecules from patent US11111237B2, “Bicyclic compound and use thereof” (SK BIOPHARMACEUTICALS CO., LTD., priority 2019, dated 2021).

PRMT5-MEP50 enzyme complex, sequence (O14744 2-637): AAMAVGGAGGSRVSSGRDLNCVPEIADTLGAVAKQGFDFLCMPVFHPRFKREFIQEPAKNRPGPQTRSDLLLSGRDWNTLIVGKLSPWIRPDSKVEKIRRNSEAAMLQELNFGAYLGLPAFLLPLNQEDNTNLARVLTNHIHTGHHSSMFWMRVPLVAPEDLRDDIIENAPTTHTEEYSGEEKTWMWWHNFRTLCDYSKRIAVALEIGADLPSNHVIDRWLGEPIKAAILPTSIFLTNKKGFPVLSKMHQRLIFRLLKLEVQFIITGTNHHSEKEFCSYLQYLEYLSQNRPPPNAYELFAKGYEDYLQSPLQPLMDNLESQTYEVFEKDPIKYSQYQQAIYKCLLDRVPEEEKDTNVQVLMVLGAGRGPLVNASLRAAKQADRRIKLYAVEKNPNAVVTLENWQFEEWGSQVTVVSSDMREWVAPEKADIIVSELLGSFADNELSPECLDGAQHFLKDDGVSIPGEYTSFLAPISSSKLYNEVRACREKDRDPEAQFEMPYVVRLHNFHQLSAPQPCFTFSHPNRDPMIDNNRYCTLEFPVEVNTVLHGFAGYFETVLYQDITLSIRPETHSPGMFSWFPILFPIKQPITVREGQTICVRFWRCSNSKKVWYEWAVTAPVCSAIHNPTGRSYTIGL
PRMT5-MEP50 enzyme complex, sequence (Q9BQA1 2-342 partner): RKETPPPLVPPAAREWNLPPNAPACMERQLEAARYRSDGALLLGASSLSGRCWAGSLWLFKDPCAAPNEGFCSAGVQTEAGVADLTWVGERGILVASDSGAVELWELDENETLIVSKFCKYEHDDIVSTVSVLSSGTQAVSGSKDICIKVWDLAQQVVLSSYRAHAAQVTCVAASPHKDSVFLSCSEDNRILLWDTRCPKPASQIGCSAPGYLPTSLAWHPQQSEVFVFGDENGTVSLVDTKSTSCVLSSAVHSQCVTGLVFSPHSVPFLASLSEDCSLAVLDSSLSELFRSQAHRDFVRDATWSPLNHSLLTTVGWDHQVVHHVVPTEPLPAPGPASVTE

The assay concerns the target PRMT5-MEP50 enzyme complex (Homo sapiens (Human), UniProt O14744). Description: PRMT5 enzyme activity in vitro assay (methylation of histone H4R3, ELISA absorbance at 450 nm). In kind it is biochemical. Conditions: SAM, histone H4 peptide, room temperature 2 hours, 8 points from 10 μM to 0.128 nM. An outline of the steps:
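Human PRMT5-MEP50 was prepared at 5 μg/mL with SAM at 2 μM and reacted 2 h at room temperature on plate-coated histone H4 (1-20) peptide. An 8-point 1:5 compound series ran from 10 μM to 0.128 nM. H4R3 methylation was detected by antibody/HRP ELISA at 450 nm to give IC50.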
(In an ELISA, binding on a coated surface is turned into a signal by an enzyme label.)
In turn, `O=C1c2ccc(Oc3ncc(F)cn3)cc2OCCN1C[C@H](O)CN1CCc2ccccc2C1` [Example 211, 4-[(2R)-3-(3,4-dihydro-1H-isoquinolin-2-yl)-2-hydroxy-propyl]-8-(5-fluoropyrimidin-2-yl)oxy-2,3-dihydro-1,4-benzoxazepin-5-one] showed an IC50 of 100 to 1000 nM.
With `CC(O)CN1CCC(Oc2ccc3c(c2)OCCN(C[C@H](O)CN2CCc4ccccc4C2)C3=O)CC1` (stereo partly drawn) [Example 212, 4-[(2R)-3-(3,4-dihydro-1H-isoquinolin-2-yl)-2-hydroxy-propyl]-8-[[1-(2-hydroxypropyl)-4-piperidyl]oxy]-2,3-dihydro-1,4-benzoxazepin-5-one] the figure was 100 to 1000 nM; with `CN1CCC[C@H](Oc2ccc3c(c2)OCCN(C[C@H](O)CN2CCc4ccccc4C2)C3=O)C1` [Example 213, 4-[(2R)-3-(3,4-dihydro-1H-isoquinolin-2-yl)-2-hydroxy-propyl]-8-[(1-methyl-3-piperidyl)oxy]-2,3-dihydro-1,4-benzoxazepin-5-one], 100 to 1000 nM; with `CCC(=O)c1ccc2c(c1)OCCN(C[C@H](O)CN1CCc3ccccc3C1)C2=O` [Example 214, 4-[(2R)-3-(3,4-dihydro-1H-isoquinolin-2-yl)-2-hydroxy-propyl]-8-propanoyl-2,3-dihydro-1,4-benzoxazepin-5-one], 100 to 1000 nM.
Regarding `O=C1c2ccc(OC3CC4CCC(C3)N4CCF)cc2OCCN1C[C@H](O)CN1CCc2ccccc2C1` (stereo partly shown) [Example 215], the IC50 was 100 to 1000 nM.
With `O=C(c1ccc2c(c1)OCCN(C[C@H](O)CN1CCc3ccccc3C1)C2=O)C1CC1` [Example 216, 8-(cyclopropanecarbonyl)-4-[(2R)-3-(3,4-dihydro-1H-isoquinolin-2-yl)-2-hydroxy-propyl]-2,3-dihydro-1,4-benzoxazepin-5-one] the figure was 1 to 100 nM; with `O=C(c1ccc2c(c1)OCCN(C[C@H](O)CN1CCc3ccccc3C1)C2=O)C1CCCC1` [Example 217, 8-(cyclopentanecarbonyl)-4-[(2R)-3-(3,4-dihydro-1H-isoquinolin-2-yl)-2-hydroxy-propyl]-2,3-dihydro-1,4-benzoxazepin-5-one], 100 to 1000 nM.
Next, `CN1CCC[C@@H](Oc2ccc3c(c2)OCCN(C[C@H](O)CN2CCc4ccccc4C2)C3=O)C1` [Example 218, 4-[(2R)-3-(3,4-dihydro-1H-isoquinolin-2-yl)-2-hydroxypropyl]-8-[(1-methyl-3-piperidyl)oxy]-2,3-dihydro-1,4-benzoxazepin-5-one]: 100 to 1000 nM.
The molecule `C[C@@H]1CN(C[C@H](O)CN2CCc3ccccc3C2)C(=O)c2ccc(OC3CCN(CCO)CC3)cc2O1` [Example 219, (2R)-4-[(2R)-3-(3,4-dihydro-1H-isoquinolin-2-yl)-2-hydroxy-propyl]-8-[[1-(2-hydroxyethyl)-4-piperidyl]oxy]-2-methyl-2,3-dihydro-1,4-benzoxazepin-5-one] showed a 50% inhibitory concentration (IC50) of 1 to 100 nM.
`C[C@@H]1CN(C[C@H](O)CN2CCc3ccccc3C2)C(=O)c2ccc(OC3CCN(CC(C)(C)O)CC3)cc2O1` [Example 220, (2R)-4-[(2R)-3-(3,4-dihydro-1H-isoquinolin-2-yl)-2-hydroxy-propyl]-8-[[1-(2-hydroxy-2-methyl-propyl)-4-piperidyl]oxy]-2-methyl-2,3-dihydro-1,4-benzoxazepin-5-one] returned an IC50 of 100 to 1000 nM.
The molecule `CC(c1ccc2c(c1)OCCN(C[C@H](O)CN1CCc3ccccc3C1)C2=O)N1CCOCC1` (stereo partly drawn) [Example 221, 4-[(2R)-3-(3,4-dihydro-1H-isoquinolin-2-yl)-2-hydroxy-propyl]-8-(1-morpholinoethyl)-2,3-dihydro-1,4-benzoxazepin-5-one] came in with a half-maximal inhibitory concentration (IC50) of 100 to 1000 nM.
With `CC(c1ccc2c(c1)OCCN(C[C@H](O)CN1CCc3ccccc3C1)C2=O)N1CC2(COC2)C1` (stereo partly drawn) [Example 222, 4-[(2R)-3-(3,4-dihydro-1H-isoquinolin-2-yl)-2-hydroxy-propyl]-8-[1-(2-oxa-6-azaspiro[3.3]heptan-6-yl)ethyl]-2,3-dihydro-1,4-benzoxazepin-5-one] the figure was 100 to 1000 nM; with `O=C1c2ccc(C#CCO)cc2OCCN1C[C@H](O)CN1CCc2ccccc2C1` [Example 223, 4-[(2R)-3-(3,4-dihydro-1H-isoquinolin-2-yl)-2-hydroxy-propyl]-8-(3-hydroxypro-1-pynyl)-2,3-dihydro-1,4-benzoxazepin-5-one], 100 to 1000 nM; with `COCCN1CCC(Oc2ccc3c(c2)O[C@H](C)CN(C[C@H](O)CN2CCc4ccccc4C2)C3=O)CC1` [Example 224, (2R)-4-[(2R)-3-(3,4-dihydro-1H-isoquinolin-2-yl)-2-hydroxy-propyl]-8-[[1-(2-methoxyethyl)-4-piperidyl]oxy]-2-methyl-2,3-dihydro-1,4-benzoxazepin-5-one], 100 to 1000 nM.
Next, `O=C1c2ccc(-c3ccncc3)cc2OCCN1C[C@H](O)CN1CCc2ccccc2C1` [Example 225, 4-[(2R)-3-(3,4-dihydro-1H-isoquinolin-2-yl)-2-hydroxy-propyl]-8-(4-pyridyl)-2,3-dihydro-1,4-benzoxazepin-5-one]: 100 to 1000 nM.
Next, `O=C1c2ccc(C#Cc3ccncc3)cc2OCCN1C[C@H](O)CN1CCc2ccccc2C1` [Example 226, 4-[(2R)-3-(3,4-dihydro-1H-isoquinolin-2-yl)-2-hydroxy-propyl]-8-[2-(4-pyridyl)ethynyl]-2,3-dihydro-1,4-benzoxazepin-5-one]: 1 to 100 nM; `O=C1c2ccc(C#Cc3cccnc3)cc2OCCN1C[C@H](O)CN1CCc2ccccc2C1` [Example 227, 4-[(2R)-3-(3,4-dihydro-1H-isoquinolin-2-yl)-2-hydroxy-propyl]-8-[2-(3-pyridyl)ethynyl]-2,3-dihydro-1,4-benzoxazepin-5-one]: 1 to 100 nM; `CC(O)C#Cc1ccc2c(c1)OCCN(C[C@H](O)CN1CCc3ccccc3C1)C2=O` (stereo partly drawn) [Example 228, 4-[(2R)-3-(3,4-dihydro-1H-isoquinolin-2-yl)-2-hydroxy-propyl]-8-(3-hydroxybu-1-tynyl)-2,3-dihydro-1,4-benzoxazepin-5-one]: 1 to 100 nM.
For `CNCC#Cc1ccc2c(c1)OCCN(C[C@H](O)CN1CCc3ccccc3C1)C2=O` [Example 229, 4-[(2R)-3-(3,4-dihydro-1H-isoquinolin-2-yl)-2-hydroxy-propyl]-8-[3-(methylamino)pro-1-pynyl]-2,3-dihydro-1,4-benzoxazepin-5-one], the IC50 lay in the range of 100 to 1000 nM.
`O=C1c2ccc(-c3cccnc3)cc2OCCN1C[C@H](O)CN1CCc2ccccc2C1` [Example 230, 4-[(2R)-3-(3,4-dihydro-1H-isoquinolin-2-yl)-2-hydroxy-propyl]-8-(3-pyridyl)-2,3-dihydro-1,4-benzoxazepin-5-one]: the IC50 is 1 to 100 nM.
Next, `Cc1nn(C)cc1-c1ccc2c(c1)OCCN(C[C@H](O)CN1CCc3ccccc3C1)C2=O` [Example 231, 4-[(2R)-3-(3,4-dihydro-1H-isoquinolin-2-yl)-2-hydroxy-propyl]-8-(1,3-dimethylpyrazol-4-yl)-2,3-dihydro-1,4-benzoxazepin-5-one]: 1 to 100 nM.
Next, `Cn1cc(-c2ccc3c(c2)OCCN(C[C@H](O)CN2CCc4ccccc4C2)C3=O)cn1` [Example 232, 4-[(2R)-3-(3,4-dihydro-1H-isoquinolin-2-yl)-2-hydroxy-propyl]-8-(1-methylpyrazol-4-yl)-2,3-dihydro-1,4-benzoxazepin-5-one]: 100 to 1000 nM; `Cc1c(-c2ccc3c(c2)OCCN(C[C@H](O)CN2CCc4ccccc4C2)C3=O)cnn1C` [Example 233, 4-[(2R)-3-(3,4-dihydro-1H-isoquinolin-2-yl)-2-hydroxy-propyl]-8-(1,5-dimethylpyrazol-4-yl)-2,3-dihydro-1,4-benzoxazepin-5-one]: 100 to 1000 nM.
`CC1(C)CN(C[C@H](O)CN2CCc3ccccc3C2)C(=O)c2ccc(OC3CCN(CCO)CC3)nc2O1` [Example 234, 4-[(2R)-3-(3,4-dihydro-1H-isoquinolin-2-yl)-2-hydroxy-propyl]-8-[[1-(2-hydroxyethyl)-4-piperidyl]oxy]-2,2-dimethyl-3H-pyrido[3,2-f][1,4]oxazepin-5-one]: the IC50 was 1 to 100 nM.
With `CC(C)(O)CN1CCC(Oc2ccc3c(c2)OCCN(C[C@H](O)CN2CCc4ccccc4C2)C3=O)CC1` [Example 238, 4-[(2R)-3-(3,4-dihydro-1H-isoquinolin-2-yl)-2-hydroxy-propyl]-8-[[1-(2-hydroxy-2-methyl-propyl)-4-piperidyl]oxy]-2,3-dihydro-1,4-benzoxazepin-5-one] the figure was 100 to 1000 nM.
With `CCOCCN1CCC(Oc2ccc3c(c2)O[C@H](C)CN(C[C@H](O)CN2CCc4ccccc4C2)C3=O)CC1` [Example 240, (2R)-4-[(2R)-3-(3,4-dihydro-1H-isoquinolin-2-yl)-2-hydroxy-propyl]-8-[[1-(2-ethoxyethyl)-4-piperidyl]oxy]-2-methyl-2,3-dihydro-1,4-benzoxazepin-5-one] the figure was 100 to 1000 nM.
In turn, `C[C@@H]1CN(C[C@H](O)CN2CCc3ccccc3C2)C(=O)c2ccc(OC3CC4CCC(C3)N4CCO)cc2O1` (stereo partly shown) [Example 241] returned an IC50 of 100 to 1000 nM.
With `C[C@@H]1CN(C[C@H](O)CN2CCc3ccccc3C2)C(=O)c2ccc(OC3CC4CCC(C3)N4CCF)cc2O1` (stereo partly shown) [Example 242] the figure was 1 to 100 nM; with `COCCN1CCC(Oc2ccc3c(c2)OCCN(C[C@H](O)CN2CCc4ccccc4C2)C3=O)CC1` [Example 243], 1 to 100 nM; with `CC(O)CN1CCC(Oc2ccc3c(c2)O[C@H](C)CN(C[C@H](O)CN2CCc4ccccc4C2)C3=O)CC1` (stereo partly drawn) [Example 245, (2R)-4-[(2R)-3-(3,4-dihydro-1H-isoquinolin-2-yl)-2-hydroxy-propyl]-8-[[1-(2-hydroxypropyl)-4-piperidyl]oxy]-2-methyl-2,3-dihydro-1,4-benzoxazepin-5-one], 100 to 1000 nM.
Take `CC(c1ccc2c(n1)OC(C)(C)CN(C[C@H](O)CN1CCc3ccccc3C1)C2=O)N1CCOCC1` (stereo partly drawn) [Example 246, 4-[(2R)-3-(3,4-dihydro-1H-isoquinolin-2-yl)-2-hydroxy-propyl]-2,2-dimethyl-8-(1-morpholinoethyl)-3H-pyrido[3,2-f][1,4]oxazepin-5-one]: the IC50 fell in the range of 100 to 1000 nM.

The term IC50 denotes the concentration that gives 50% inhibition. Higher therefore signals a need for much substance.
